pIC50: −log10 of the molar value. Read-outs that look alike come from different tables or passages of the source. A value given as a limit tells only on which side of the number the result lay.

Assay [1] has as its system Arachidonic Acid-Induced Inflammation of the Mouse Ear. Description: Arachidonic acid-induced mouse ear inflammation. The class given is in vivo, mouse (male Balb/c). Conditions: for inhibition in vivo at 50 mg/kg: Mus musculus, 1 h, Table 7A, read-out: % Inhibition of Ear Swelling. The source says: (§1) In the following Examples where mice were used, they were male Balb/c mice (20-28 g), and where rats were used, they were male Lewis rats (180-210 g). All mice and rats were obtained from Charles River Breeding Laboratories, Kingston, N.Y. Within a single experiment, mice and rats were sex and age matched.
(§2) The compounds of Formula (I) were used either as the free base or in the appropriate salt form. Levamisole was used as the hydrochloride salt. The compounds were homogenized in 0.5% tragacanth. Compounds were administered by gavage at the indicated dose in a final volume of 10 ml/kg. Nordihydroguaiaretic acid (NDGA) was solubilized in dimethylacetamide and diluted with olive oil for subcutaneous administration.
Arachidonic acid in acetone ([…]) was applied to the inner surface of the left ear. The thickness of both ears was then measured with a dial micrometer one hour after treatment, and the data were expressed as the change in thickness (10^-3 cm) between treated and untreated ears.
Test compounds were given orally in 0.5% tragacanth at the times indicated in the text prior to the topical application of arachidonic acid.
Parenteral administration of compound was accomplished by subcutaneous injection of solution as indicated.

The subject of assay [2] is 5-lipoxygenase and LTA4 synthetase. Description: Di-HETE / LTB4 production by high speed supernatant of RBL-1 cells. The class given is biochemical. Conditions: RBL-1 high speed supernatant; Table 9A; read-out: 5-LO IC50 (LTB4 production). How it is done:
For in vitro experiments, compounds were dissolved at appropriate concentrations in ethanol or DMSO (dimethylsulfoxide) (final concentration≤1.0%) and then diluted to final concentrations using the buffers indicated in the text.
The activities of these enzymes in extracts of RBL-1 cells were assayed using the method of Jakschik and Lee, Nature, 287, 51-52 (1980). RBL-1 cells were obtained from the American Type Culture Collection (#CRL 1378) and were grown at 37° C. (5% CO2 in air) in spinner culture in MEM supplemented with 10% heat inactivated fetal calf serum. Harvested cells were washed with 50 mM sodium phosphate buffer, pH 7.0, containing 1 mM EDTA and 0.1% gelatin, resuspended in fresh buffer (5×10^7 cells/ml) and disrupted by nitrogen cavitation using the Parr bomb at 750 psi for 10 min. The broken cell extract was then centrifuged at 10,000× g for 20 minutes (min) and the supernatant centrifuged at 100,000 xIg for 60 min. Aliquots (0.25 mls) of the supernatant were preincubated with or without drugs for 10 min, after which 10 μl CaCl2 (50 mM) was added and the reaction was initiated with 2.5 μl of 2.5 mM arachidonic acid-1-^14 C (final concentration was 25 μM; specific activity 20,000 dpm/nmole). After incubation for 3 min at 37° C., the reaction was terminated by addition of 2 volumes (0.5 ml) ice cold acetone and the sample was allowed to deproteinize on ice for 10 min prior to centrifugation at 1,000× g for 10 min. The deproteinized supernatant was adjusted to pH 3.5 with 2N formic acid and extracted with 2 volumes of ice cold ethyl acetate. The extracted samples were dried under argon, redissolved in ethyl acetate and applied to Whatman LK5D thin layer chromatography (TLC) plates which were developed using the A-9 solvent system [organic phase of ethyl acetate: 2,2,5-trimethylpentane:acetic acid: water (110:50:20:10)] described by Hamberg and Samuelsson, J. Biol. Chem., 241, 257-263 (1966). Arachidonic acid, 5-HETE, LTB4 and PGD2 were quantified with a Berthold LB 2832 autoscanner.
The 5-lipoxygenase and LTA4 synthetase activities were further studied under the following conditions. An additional centrifugation of the RBL-1 supernatant was run at 100,000× g for 60 min, to remove the particulate cyclooxygenase activity. Sample incubation was done under conditions similar to those described above, i.e., 2 mM CaCl2 and […] arachidonic acid-1-^14 C, however, with an incubation time of 5 min at 5° C. Under these conditions, only the 5-lipoxygenase pathway metabolites were detectable. The 5-HETE and di-HETEs were formed at a linear rate, and substantial amounts of the arachidonic acid-1-^14 C substrate were utilized.

Assay [3] relates to LTB4 synthesis by peritoneal exudate cells. Description: Ex vivo production of LTB4 from peritoneal exudate cells of drug-treated mice. The assay is classed as in vivo, mouse. To be noted: for inhibition at 50 mg/kg: Mus musculus, po, 50 mg/kg p.o. The source says:
In the following Examples where mice were used, they were male Balb/c mice (20-28 g), and where rats were used, they were male Lewis rats (180-210 g). All mice and rats were obtained from Charles River Breeding Laboratories, Kingston, N.Y. Within a single experiment, mice and rats were sex and age matched. Auranofin, phenidone, indomethacin, naproxen, and ibuprofen were each used as the free base. The compounds of Formula (I) were used either as the free base or in the appropriate salt form. Levamisole was used as the hydrochloride salt. […] Nordihydroguaiaretic acid (NDGA) was solubilized in dimethylacetamide and diluted with olive oil for subcutaneous administration. Carrageenan-induced peritoneal exudate cells from normal or drug-treated mice were washed and suspended in 2.2 ml of phosphate buffered saline. […] The cell preparation was centrifuged at 1500 rpm for 10 min and the supernatant was extracted using a C-18 silica column. […] A tetrahydrofuran, methanol, water, acetic acid (25:30:45: 0.1) solvent system, adjusted to pH 5.5 with ammonium hydroxide, was used at a flow rate of 0.7 ml/min. Cell derived LTB4 was quantified utilizing standard curves constructed with known amounts of synthetic LTB4.

Assay [4] concerns Infiltration of Polymorphonuclear Leukocytes into Sites of Carrageenan-Induced Inflammation. Description: Mouse carrageenan peritonitis (PMN infiltration). The assay is classed as in vivo, mouse (male Balb/c). To be noted: carrageenan peritonitis, mice.
Excerpt: as §1, §2
Mice were pretreated with either the test compound or vehicle one hour before the intraperitoneal injection of a 1.0% carrageenan suspension in saline (0.2 ml/mouse). Mice were sacrificed by cervical dislocation two hours after injection, and 3.0 ml of phosphate buffered saline, without Ca^++ or Mg^++, was injected into the peritoneum. Following massage, a 2.0 ml aliquot of the lavage fluid was removed, and the total cell count determined on a Coulter counter and differential cell count determined by microscopic examination of Giesma-stained slides.

Turning to `CC(C)Cc1ccc(C(C)C(=O)O)cc1` (stereo not drawn) [Ibuprofen, reference compound], the “Mouse ear edema, result in words” value in assay [1] (mouse, in vivo) is on record as “did not exhibit detectable anti-inflammatory activity”.

One may read the pIC50 as −log10 of the IC50, conventionally taken in molar units. Consider `N#Cc1ccc(-c2nc3n(c2-c2ccc(C#N)cc2)CCS3)cc1` [Compound 13, 5,6-bis(4-cyanophenyl)-2,3-dihydroimidazo[2,1-b]thiazole], for which the pIC50 in assay [2] was 4.82. In assay [1] (50 mg/kg s.c. or i.p.), the inhibition in vivo at 50 mg/kg stood at 50%.

For the compound `c1cc(N2CCCC2)ccc1-c1nc2n(c1-c1ccc(N3CCCC3)cc1)CCS2` [Compound 3, 5,6-bis(4-(1-pyrrolidinyl)phenyl)-2,3-dihydroimidazo[2,1-b] thiazole], the pIC50 in assay [2] is 7.00. In addition, the inhibition in vivo at 50 mg/kg in assay [1] (50 mg/kg s.c. or i.p.) is 44%.

`c1cc(-c2c(-c3ccc4c(c3)OCO4)nc3n2CCS3)ccn1` [Compound 5]: the pIC50 in assay [2] is 5.00.

Broadly, the inhibition is the share of the control response that was lost under treatment. Low values mean little suppression, high ones strong suppression. With `COc1ccc2cc([C@H](C)C(=O)O)ccc2c1` [Naproxen], the inhibition at 50 mg/kg stood at 0% in assay [3] (Experiment 1), 15% in assay [3] (Experiment 2) and 0% in assay [3] (Experiment 3). Moreover, the “LTB4 production ex vivo, result in words” value in assay [3] (mouse, in vivo) was “inactive”.

Take `Fc1ccc(-c2nc3n(c2-c2ccc(F)cc2)CCS3)cc1` [Compound 19]: in assay [2], the negative-log IC50 (pIC50) is 5.30. Moreover, in assay [1] (po, 50 mg/kg p.o.), the inhibition in vivo at 50 mg/kg turned out to be 34%.

Consider `CSc1ccc(-c2nc3n(c2-c2ccc(SC)cc2)CCS3)cc1` [Compound 32], for which the pIC50 in assay [2] is < 4.00.

For the compound `c1cc(N2CCCCC2)ccc1-c1nc2n(c1-c1ccc(N3CCCCC3)cc1)CCS2` [Compound 4, 5,6-bis(4-(1-piperidinyl)phenyl)-2,3-dihydroimidazo[2,1-b] thiazole], the pIC50 in assay [2] was 6.22. Besides, the inhibition in vivo at 50 mg/kg in assay [1] (50 mg/kg s.c. or i.p.) turned out to be 22%.

In the case of `c1cc2c(cc1-c1nc3n(c1-c1ccc4c(c1)OCO4)CCS3)OCO2` [Compound 16], in assay [2], the negative-log IC50 (pIC50) was 5.82. The inhibition in vivo at 50 mg/kg in assay [1] (po, 50 mg/kg p.o.) was 32%.

With `CN(C)c1ccc(-c2c(-c3ccc(F)cc3)nc3n2CCS3)cc1` [Compound 10, 5-(4-Dimethylaminophenyl)-6-(4-fluorophenyl)-2,3-dihydroimidazo[2,1-b]-thiazole], the negative-log IC50 (pIC50) in assay [2] was 5.82. Further, the inhibition in vivo at 50 mg/kg in assay [1] (50 mg/kg s.c. or i.p.) came to 7%.

Regarding `c1ccc([C@H]2CN3CCSC3=N2)cc1` [Levamisole], in assay [4], the “PMN infiltration, result in words” value was “did not impair inflammatory cell infiltration”.

With `Fc1ccc(-c2nc3n(c2-c2ccc(F)cc2)CCC3)cc1` [Compound 8], in assay [2], the negative-log IC50 (pIC50) was 5.10. For the same compound, the inhibition in vivo at 50 mg/kg in assay [1] (po, 50 mg/kg p.o.) came out at 40%.

`c1cc(-c2nc3n(c2-c2ccc4c(c2)OCO4)CCS3)ccn1` [Compound 7, 6-(4-pyridyl)-5-(3,4-methylenedioxyphenyl)-2,3-dihydroimidazo [2,1-b]thiazole]: the pIC50 in assay [2] was 5.00. Also, in assay [1] (50 mg/kg s.c. or i.p.), the inhibition in vivo at 50 mg/kg amounted to 62%.

Turning to `COc1ccc(-c2nc3n(c2-c2ccc(OC)cc2)CCS3)cc1` [Compound 21], in assay [2], the pIC50 was 5.55.

On to `CCCNc1ccc(-c2nc3n(c2-c2ccncc2)CCS3)cc1` [Compound 2, 6-(4-(1-propylamino)phenyl)-5-(4-pyridyl)-2,3-dihydroimidazo[2,1-b]thiazole], for which the negative-log IC50 (pIC50) in assay [2] is 5.15. For the same compound, the inhibition in vivo at 50 mg/kg in assay [1] (50 mg/kg s.c. or i.p.) was determined as 23%.

On to `CCN(CC)c1ccc(-c2nc3n(c2-c2ccc(N(CC)CC)cc2)CCS3)cc1` [Compound 9, 5,6-bis(4-N,N-diethylaminophenyl)-2,3-dihydroimidazo [2,1-b]thiazole], for which the pIC50 in assay [2] is 6.80. Further, the inhibition in vivo at 50 mg/kg in assay [1] (po, 50 mg/kg p.o.) amounted to 17%.

With `O=S1(=O)CCn2c1nc(-c1ccc(F)cc1)c2-c1ccc(F)cc1` [Compound 31], in assay [2], the pIC50 was > 4.48.

For `COc1ccc(-c2nc3n(c2-c2ccc(F)cc2)CCS3)cc1` [Compound 14], the pIC50 in assay [2] was 6.22. For the same compound, the inhibition in vivo at 50 mg/kg in assay [1] (50 mg/kg s.c. or i.p.) turned out to be 64%.

In the case of `FC(F)(F)c1ccc(-c2nc3n(c2-c2ccc(C(F)(F)F)cc2)CCS3)cc1` [Compound 15], the negative logarithm of the IC50 (pIC50) in assay [2] is 5.00.

Regarding `Fc1ccc(-c2c(-c3ccccn3)nc3n2CCS3)cc1` [Compound 24, 5-(4-fluorophenyl)-6-(2-pyridinyl)-2,3-dihydroimidazo[2,1-b]thiazole], the pIC50 in assay [2] is 4.70. In addition, the inhibition in vivo at 50 mg/kg in assay [1] (50 mg/kg s.c. or i.p.) is 69%.

Turning to `c1cc(-c2c(-c3ccc(N4CCCC4)cc3)nc3n2CCS3)ccn1` [Compound 25, 5-(4-pyridyl)-6-(4-(pyrrolidin-1-yl)-phenyl)-2,3-dihydroimidazo[2,1-b]thiazole], the pIC50 in assay [2] is 6.30. The inhibition in vivo at 50 mg/kg in assay [1] (po, 50 mg/kg p.o.) came out at 17%.

For the compound `CN(C)c1ccc(-c2nc3n(c2-c2ccc(F)cc2)CCS3)cc1` [Compound 6, 6-(4-dimethylaminophenyl)-5-(4-fluorophenyl)-2,3-dihydroimidazo[2,1-b]thiazole], in assay [2], the pIC50 was 6.22. In addition, in assay [1] (50 mg/kg s.c. or i.p.), the inhibition in vivo at 50 mg/kg worked out at 48%.

As for `COc1ccc(-c2nc3n(c2-c2ccc(OC)cc2)CCCS3)cc1` [Compound 20], the negative logarithm of the IC50 (pIC50) in assay [2] is 5.25. Besides, the inhibition in vivo at 50 mg/kg in assay [1] (50 mg/kg s.c. or i.p.) came out at 47%.

Turning to `c1cc(-c2nc3n(c2-c2ccncc2)CCS3)ccn1` [Compound 11, 5,6-Bis(4-pyridyl)-2,3-dihydroimidazo(2,1-b) thiazole], the pIC50 in assay [2] is 4.48. Further, the inhibition in vivo at 50 mg/kg in assay [1] (50 mg/kg s.c. or i.p.) came to 29%.

In the case of `Fc1ccc(-c2nc3n(c2-c2ccccn2)CCS3)cc1` [Compound 23, 5-(2-pyridinyl)-6-(4-fluorophenyl)-2,3-dihydroimidazo[2,1-b]thiazole], the pIC50 in assay [2] was 4.38. The inhibition in vivo at 50 mg/kg in assay [1] (50 mg/kg s.c. or i.p.) came to 65%.

As to `COc1ccc(-c2nc3n(c2-c2ccc(OC)cc2)CCC3)cc1` [Compound 22], the inhibition in vivo at 50 mg/kg in assay [1] (50 mg/kg s.c. or i.p.) was 15%.

Turning to `CC(=O)Nc1ccc(-c2nc3n(c2-c2ccncc2)CCS3)cc1` [Compound 38, 5-(4-pyridyl)-6-(4-acetamidophenyl)-2,3-dihydroimidazo (2,1-b)thiazole], in assay [2], the negative-log IC50 (pIC50) is 4.52.

In the case of `[O-][S+]1CCn2c1nc(-c1ccc(F)cc1)c2-c1ccc(F)cc1` (stereo not drawn) [Compound 30], in assay [2], the pIC50 is 4.22.

The record behind these values is patent US5134150A, “Inhibition of the 5-lipoxygenase pathway” (priority 1989, dated 1992).
